Structures can show the parent of a compound that is named as a salt.
How the values were obtained:
[1] = test system: μ-opioid receptors; conditions: cited from earlier work
[2] = test system: animal models; conditions: cited from earlier work
[3] = test system: normal subject; assay: Delay of ejaculation after an oral dose taken 30–60 minutes prior to sexual intercourse; format: in vivo, human
Description: […]. […] […]

## COc1cccc(C2(O)CCCCC2CN(C)C)c1 (stereo not shown) [tramadol, 2-[(dimethylamino)methyl]-1-(3-methoxyphenyl)-cyclohexanol]
[1]
  affinity of binding to μ-opioid receptors: low affinity binding

## CN(C)C[C@H]1CCCC[C@]1(O)c1cccc(O)c1 [M1]
[1]
  affinity of binding to μ-opioid receptors: higher affinity binding
  potency in μ-opioid binding relative to tramadol: 200 times
[2]
  potency in producing analgesia relative to tramadol: up to 6 times

## COc1cccc([C@]2(O)CCCC[C@H]2CN(C)C)c1 (racemic) [tramadol hydrochloride, (±)cis-2-[(dimethylamino)methyl]-1-(3-methoxyphenyl)-cyclohexanol hydrochloride]
[3]; 25 mg orally, 30–60 minutes prior to sexual intercourse, normal subject
  delay of ejaculation: 10 to 15 min
[3]; 100 mg
  ejaculation/orgasm achieved: sometimes ejaculation/orgasm was not achieved
[3]; doses of 50–100 mg
  side effects associated with the dose: drowsiness, lightheadedness, dry mouth and a sense of slight euphoria (opioid effect)

Source: patent publication US6974839B2, “Method of delaying ejaculation” (DMI BioSciences, Inc., priority 2001, dated 2005)
